In paper PMC10350920, “Development of a 2,4-Diaminothiazole Series for the Treatment of Human African Trypanosomiasis Highlights the Importance of Static–Cidal Screening of Analogues” (Journal of Medicinal Chemistry, 2023):

How the values were obtained:
[1] = tested on: BSF T. b. brucei “single marker” S427; experiment: Drug sensitivity assay with bloodstream-form T. brucei; assay type: cell-based; conditions: for EC50: mean values, number of replicates in parentheses; for reduction (loss, drop off) in potency against T. brucei relative to parent analogue: SAR comparison
Experimental: (§1) Drug sensitivity assays with BSF T. b. brucei “single marker” S427 and human MRC-5 fibroblasts were conducted as previously described.[43]

[2] = tested on: human MRC-5 fibroblasts; experiment: Mammalian cell counter screen (MRC-5); assay type: cell-based; conditions: for SI: selectivity index (EC50 MRC5/EC50 T. brucei)
Experimental: as §1

[3] = Mouse liver microsomal intrinsic clearance; assay type: in vitro ADME
Experimental: Test compounds (0.5 μM) were incubated with female CD1 mouse liver microsomes (Xenotech LLC; 0.5 mg mL^–1 50 mM potassium phosphate buffer, pH 7.4), and the reaction started with the addition of excess NADPH (8 mg mL^–1 50 mM potassium phosphate buffer, pH 7.4). Immediately, at 0 min, and then at 3, 6, 9, 15, and 30 min, an aliquot (50 μL) of the incubation mixture was removed and mixed with acetonitrile (100 μL) to stop the reaction. The internal standard was added to all samples, the samples were centrifuged to sediment the precipitated protein, and the plates were then sealed prior to UPLC–MS/MS analysis using a Quattro Premier XE (Waters Corporation, USA). XLfit (IDBS, UK) was used to calculate the exponential decay and consequently the rate constant (k) from the ratio of the peak area of the test compound to the internal standard at each time point. The rate of intrinsic clearance (CLint) of each test compound was then calculated using the following calculation [drawing 3] where V (mL mg^–1 protein) is the incubation volume mg^–1 protein added and the microsomal protein yield is taken as 52.5 mg protein g^–1 liver. Verapamil (0.5 μM) was used as a positive control to confirm acceptable assay performance.

[4] = Mammalian cell counter screen (MRC-5); assay type: cell-based, human; conditions: human, MRC-5 fibroblasts; mean values; number of replicates in parentheses
Experimental: as §1

Row | Compound | EC50 ([1]; Trypanosoma brucei) [nM] | SI [2] | CLint (mouse) [3] [mL·min/g] | EC50 [4] [nM] | reduction (loss, drop off) in potency against T. brucei relative to parent analogue [1] [fold] | EC50 [1] [nM] | EC50 [2] [nM]
1 | Nc1nc(NC2CCCCC2)sc1C(=O)c1ccccc1F [Compound 27, (4-Amino-2-(cyclohexylamino)thiazol-5-yl)(2-fluorophenyl)methanone] | 70 | 29 | 9.7 | – | – | – | –
2 | Nc1nc(NC2CCCCC2)sc1C(=O)C1CCCCC1 [Compound 20, (4-Amino-2-(cyclohexylamino)thiazol-5-yl) (cyclohexyl)methanone] | 150 | 273 | 8.9 | 41000 | – | – | –
3 | Nc1nc(NC2CCCCC2)sc1C(=O)c1ccc(F)cc1F [Compound 29, (4-Amino-2-(cyclohexylamino)thiazol-5-yl)(2,4-difluorophenyl)methanone] | 50 | 128 | 6.5 | 6400 | – | – | –
4 | Nc1nc(Nc2ccc(F)c(F)c2)sc1C(=O)COC(C(F)(F)F)C(F)(F)F [Compound 49, 1-(4-Amino-2-((3,4-diflurorophenyl)amino)thiazol-5-yl)-2-(((1,1,1,3,3,3)-hexafluoropropan-2-yl)oxy)ethanone] | 20 | 650 | – | 13000 | – | – | –
5 | Nc1nc(NC2CCCCC2)sc1C(=O)C1CCC1 [Compound 19, (4-Amino-2-(cyclohexylamino)thiazol-5-yl)cyclobutylmethanone] | 370 | – | 21 | 13000 | – | – | –
6 | COC(C)(C)C(=O)c1sc(NC2CCCCC2)nc1N [Compound 17, 1-(4-Amino-2-(cyclohexylamino)thiazol-5-yl)-2-methoxy-2-methylpropan-1-one] | 1900 | >26 | 3.8 | > 50000 | – | – | –
7 | O=C(c1cnc(NC2CCCCC2)s1)C1CCCCC1 [Compound 32, Cyclohexyl(2-(cyclohexylamino)thiazole-5-yl)methanone] | 18000 | 3 | 15 | 49000 | > 20 | – | –
8 | Cc1ccc(C(=O)c2sc(NC3CCCCC3)nc2N)cc1 [Compound 24, (4-Amino-2-(cyclohexylamino)thiazol-5-yl)(p-tolyl)methanone] | 280 | >179 | – | > 50000 | – | – | –
9 | CC(C)OCCC(=O)c1sc(Nc2ccc(F)c(F)c2)nc1N [Compound 45, 1-(4-Amino-2-((3,4-difluorophenyl)amino)thiazol-5-yl)-3-isopropoxypropan-1-one] | 2600 | 19 | – | > 50000 | – | – | –
10 | Nc1nc(NC2CCCCC2)sc1C(=O)c1ccc(F)cc1 [Compound 22, (4-Amino-2-(cyclohexylamino)thiazol-5-yl)(4-fluorophenyl)methanone] | 50 | 420 | 4.9 | 21000 | – | – | –
11 | O=C(c1cnc(NC2CCCCC2)s1)c1c(F)cccc1F [Compound 33, (2-(Cyclohexylamino)thiazol-5-yl)(2,6-difluorophenyl)methanone] | 15000 | 3 | – | 47000 | > 20 | – | –
12 | CC(C)(F)CC(=O)c1sc(Nc2ccc(F)c(F)c2)nc1N [Compound 41, 1-(4-Amino-2-((3,4-difluorophenyl)amino)thiazol-5-yl)-3-fluoro-3-methylbutan-1-one] | 560 | 82 | – | 46000 | – | – | –
13 | Nc1nc(NC2CCCCC2)sc1C(=O)c1cc(F)cc(F)c1 [Compound 31, (4-Amino-2-(cyclohexylamino)thiazol-5-yl)(3,5-difluorophenyl)methanone] | 160 | 19 | 3.6 | 3100 | – | – | –
14 | Nc1nc(NC2CCCCC2)sc1C(=O)c1ccccc1C(F)(F)F [Compound 28] | 390 | 5 | 14 | 1900 | – | – | –
15 | CC(C)(C)CC(=O)c1sc(Nc2ccc(F)c(F)c2)nc1N [Compound 40, 1-(4-Amino-2-((3,4-difluorophenyl)amino)thiazol-5-yl)-3,3-dimethylbutan-1-one] | 150 | >333 | 4.6 | > 50000 | – | – | –
16 | Nc1nc(Nc2ccc(F)c(F)c2)sc1C(=O)COC(CF)CF [Compound 48, 1-(4-Amino-2-((3,4-difluorophenyl)amino)thiazol-5-yl)-2-((1,3-difluoropropan-2-yl)oxy)ethanone] | 50 | 1000 | – | > 50000 | – | – | –
17 | Nc1nc(NC2CCCCC2)sc1C(=O)c1ccncc1 [Compound 25, (4-Amino-2-(cyclohexylamino)thiazol-5-yl)(pyridine-4-yl)methanone] | 460 | 41 | 4.1 | 19000 | – | – | –
18 | Nc1nc(NC2CCCCC2)sc1C(=O)c1c(Cl)cccc1Cl [Compound 21, (4-Amino-2-(cyclohexylamino)thiazol-5-yl)(2,6-dichlorophenyl)methanone] | 140 | 34 | 4.1 | 4800 | – | – | –
19 | Nc1nc(NC2CCCCC2)sc1C(=O)c1ccc(F)c(F)c1 [Compound 30, (4-Amino-2-(cyclohexylamino)thiazol-5-yl)(3,4-difluorophenyl)methanone] | 50 | 840 | 12 | 42000 | – | – | –
20 | Nc1nc(Nc2ccccc2)sc1C(=O)c1ccc(F)cc1 [Compound 35, (4-Amino-2-(phenylamino)thiazol-5-yl)(4-fluorophenyl)methanone] | 190 | >263 | 7.3 | > 50000 | – | – | –
21 | CC(C)(C)OCC(=O)c1sc(Nc2ccc(F)c(F)c2)nc1N [Compound 43, 1-(4-Amino-2-((3,4-difluorophenyl)amino)thiazol-5-yl)-2-(tert-butoxy)ethanone] | 100 | 500 | – | > 50000 | – | – | –
22 | COC(C)(C)CC(=O)c1sc(Nc2ccc(F)c(F)c2)nc1N [Compound 39, 1-(4-Amino-2-((3,4-difluorophenyl)amino)thiazol-5-yl)-3-methoxy-3-methylbutan-1-one] | 210 | 238 | 6.1 | > 50000 | – | – | –
23 | Nc1nc(NC2CCCCC2)sc1C(=O)c1ccc(C(F)(F)F)cc1 [Compound 23, (4-Amino-2-(cyclohexylamino)thiazol-5-yl)(4-(trifluoromethyl)phenyl)methanone] | 660 | 56 | 1.4 | 37000 | – | – | –
24 | CCOCC(=O)c1sc(Nc2ccc(F)c(F)c2)nc1N [Compound 44, 1-(4-Amino-2-((3,4-difluorophenyl)amino)thiazol-5-yl)-2-ethoxyethanone] | 150 | 333 | – | > 50000 | – | – | –
25 | 1-(4-Amino-2-((3-(difluoromethoxy)phenyl)amino)thiazol-5-yl)-2-((1,1,1-trifluoropropan-2-yl)oxy)ethanone [Compound 54] | – | 2500 | – | – | – | 20 | > 50000
